{
  "source": "patent US20110212101A1",
  "about": "“MATERIALS AND METHODS FOR EXPLOITING SYNTHETIC LETHALITY IN MISMATCH REPAIR-DEFICIENT CANCERS” (priority 2007, published 2011)",
  "key": {"[1]": {"system": "OGG1 expression in HeLa cells", "assay": "Western blot for OGG1 expression", "type": "cell-based, human", "conditions": "POLB silenced cells; 50 μM MG132, lysates 18 hours later", "procedure": "(§1) Cell pellets were lysed in 20 mmol/L Tris (pH 8), 200 mmol/L NaCl, 1 mmol/L EDTA, 0.5% (v/v) NP40, 10% (v/v) glycerol, and protease inhibitors. Immunoprecipitations were performed by incubating Protein G beads (Sigma), 1-2 mg of precleared cell lysate and anti-POLB antibody (ab3181, Abcam; dilution 1:100) overnight at 4° C. Beads were subsequently washed three times in cold lysis buffer, after which 2× loading buffer was added and the samples were boiled for 5 min before SDS-PAGE. For western blotting, lysates were electrophoresed on Novex precast gels (Invitrogen) and immunoblotted using the following antibodies: anti-MSH2 (Ab-1, Calbiochem), anti-POLB (ab3181, Abcam), anti-MLH1 (ab9144, Abcam), anti-POLG (Novus), anti-PCNA (SC7907, Santa-Cruz), anti-Cytochrome C (Pharmagen) anti-OGG1 (NB100-106, Novus biologicals), anti-CHIP (ab39559, Abcam) and anti-β-tubulin, (T4026, Sigma). This was followed by incubation with anti-IgG-horseradish peroxidase and chemiluminescent detection (SuperSignal West Pico Chemiluminescent Substrate, Pierce). Immunoblotting for (1-tubulin was used as a loading control."}, "POLG": {"system": "POLG", "conditions": "cited from earlier work; for inhibition of POLG activity in vitro: extent of inhibition varies widely"}, "[2]": {"system": "Hec59 and Hec59+chr2 cells", "assay": "High-throughput compound inhibitor screen, CellTitre Glo viability", "type": "cell-based, human", "conditions": "library of 1120 compounds; viability after six days", "procedure": "(§2) Compound libraries were purchased from Prestwick Chemicals (Saffron Walden, Essex, UK). Validation experiments were carried out with Methotrexate (Biomol International L.P.) and Menadione and Partenolide (Prestwick chemicals). Cells were plated in 96-well plates. After 12 hr incubation, cells were exposed to compound or equimolar DMSO and re-treated every 48 hrs. Cell viability was measured six days later using the CellTitre Glo assay (Promega) according to the manufacturer's instructions. Validation of hit compounds was performed by clonogenic assays. Exponentially growing cells were seeded at various densities in six-well plates. Cells were treated with increasing concentrations of the compound. Cell medium was replaced every four days. After ten to fourteen days, cells were fixed in methanol, stained with crystal violet, and counted. The plating efficiencies were calculated as the number of colonies divided by the number of cells plated for each compound treatment. The surviving fraction (SF) for a given sample was calculated as the plating efficiencies for each compound treated cells divided by the plating efficiencies of DMSO treated cells."}, "[3]": {"system": "Hec59+chr2 cells (MSH2 proficient)", "assay": "8-OHdG ELISA on isolated DNA", "type": "cell-based, human", "conditions": "compound treatment for three days", "procedure": "(§3) Genomic DNA was extracted using the Qiamp DNA isolation kit (Qiagen) and digested with nuclease P1. Mitochondrial and nuclear DNA was extracted using the mitochondrial DNA isolation kit (ab65321, Abcam). A commercially available ELISA kit from Cell Biolabs was used to determine levels of 8-OHdG in isolated DNA. The assays were performed according to the manufacturer's instructions. The 8-OHdG standard (0.078-20 ng/ml) or 10 μg DNA from siRNA transfected cells was incubated with a 8-OHdG monoclonal antibody in a microtiter plate precoated with 8-OHdG.\n(§4) Addition of […] to replicate samples was followed by measurement of absorbance at 450 nm. Standard curves were calculated for all reactions with serial dilutions of 8-OHdG standard to calculate reaction efficiency. Samples were assayed in triplicate."}, "[4]": {"system": "Hec59 cells (MSH2 deficient)", "assay": "8-OHdG ELISA on isolated DNA", "type": "cell-based, human", "conditions": "compound treatment for three days", "procedure": "as §3, §4"}, "Hec59+chr2 cells": {"system": "Hec59+chr2 cells", "assay": "Clonogenic survival with methotrexate after MSH2 siRNA", "type": "cell-based, human", "conditions": "cells transfected with MSH2 siRNA vs siControl; continuous exposure 14 days", "procedure": "(§5) For clonogenic assays, exponentially growing cells were seeded at various densities in six-well plates. Cells were transfected with siRNA as before. Cell medium was replaced every four days. After ten to fourteen days, cells were fixed in methanol, stained with crystal violet, and counted. The plating efficiencies were calculated as the number of colonies divided by the number of cells plated for each siRNA transfection. The surviving fraction (SF) for a given sample was calculated as the plating efficiencies for each siRNA transfection divided by the plating efficiencies of siControl siRNA transfected cells. All transfections were carried out in triplicate.\n(§6) Compound libraries were purchased from Prestwick Chemicals (Saffron Walden, Essex, UK). […] Cell viability was measured six days later using the CellTitre Glo assay (Promega) according to the manufacturer's instructions. […] After ten to fourteen days, cells were fixed in methanol, stained with crystal violet, and counted. The plating efficiencies were calculated as the number of colonies divided by the number of cells plated for each compound treatment. The surviving fraction (SF) for a given sample was calculated as the plating efficiencies for each compound treated cells divided by the plating efficiencies of DMSO treated cells."}, "HeLa cells": {"system": "HeLa cells", "assay": "Clonogenic survival with methotrexate after MSH2 siRNA", "type": "cell-based, human", "conditions": "cells transfected with MSH2 siRNA vs siControl; continuous exposure 14 days", "procedure": "as §5, §6"}, "[5]": {"system": "POLβ expression in Hec59 and Hec59+chr2 cells", "assay": "Western blot for POLβ expression", "type": "cell-based, human", "conditions": "72 hours after treatment with methotrexate", "procedure": "as §1\nTransfected cell pellets were lysed in 20 mmol/L Tris (pH 8), 200 mmol/L NaCl, 1 mmol/LEDTA, 0.5% (v/v) NP40, 10% (v/v) glycerol, and protease inhibitors. […]"}, "POLB": {"target": "POLB (Rattus norvegicus, UniProt P06766)", "conditions": "read-out: IC50 as POLB inhibitor; cited from earlier work"}, "[6]": {"system": "Hec59 and Hec59+chr2 cells", "assay": "Clonogenic assay with compounds", "type": "cell-based, human", "conditions": "folic acid added in concert with methotrexate; Hec59 MSH2 deficient cells; 14 days", "procedure": "as §2"}, "[7]": {"system": "reactive oxygen species (ROS)", "conditions": "VK3 at 30 μM; leading to apoptosis; cited from earlier work"}, "[8]": {"system": "POLB mRNA in MSH2 deficient and proficient cells", "assay": "POLB mRNA by qRT-PCR after H2O2", "type": "cell-based, human", "conditions": "100 μM H202, RNA isolated after 15 mins", "procedure": "Quantification of RNA expression was measured by real time RT-PCR. Total RNA was extracted from cells with Trizol (Invitrogen) according to manufacturer's instructions. Total RNA from patient biopsies was purified from 10 μm sections using the High Pure RNA Paraffin Kit (Roche Diagnostic Ltd). cDNA was synthesized using Omniscript Reverse Transcriptase System for RT-PCR (Qiagen) with oligo dT as per manufacturer's instructions. Assay-on-Demand primer/probe sets were purchased from Applied Biosystems (Foster City, Calif.). Real-Time qPCR was performed on the […] Fast Real-Time PCR System (Applied Biosystems), with endogenous control β-Actin. Standard curves were calculated for all reactions with serial dilutions of control Hec59+chr2 cells to calculate reaction efficiency. Gene expression was calculated relative to expression of β-Actin endogenous control, and adjusted relative to expression in control Hec59+chr2 cells. Samples were quantified in triplicate."}},
  "note": "Where a SMILES comes first, the peptide text is derived from it. The star is where a group is joined. Cbz = O=C(OCc1ccccc1)*",
  "data": [
    {"smiles": "CC(C)C[C@@H](C=O)NC(=O)[C@H](CC(C)C)NC(=O)[C@H](CC(C)C)NC(=O)OCc1ccccc1", "note": "[MG132] (Cbz-Leu-Leu-Leu-aldehyde)", "values": [
      {"measurement": "OGG1 expression", "setting": "[1]", "value": "restored the expression of OGG1"}
    ]},
    {"smiles": "CC(Cn1cnc2c(N)ncnc21)OCP(=O)(O)OP(=O)(O)OP(=O)(O)O", "note": "(stereo in doubt) [tenofovir-DP]", "values": [
      {"measurement": "inhibition of POLG activity in vitro", "setting": "POLG", "value": "inhibit POLG activity in vitro"}
    ]},
    {"smiles": "Cc1cn([C@H]2C[C@H](N=[N+]=[N-])[C@@H](COP(=O)(O)OP(=O)(O)OP(=O)(O)O)O2)c(=O)[nH]c1=O", "note": "[zidovudine-TP]", "values": [
      {"measurement": "inhibition of POLG activity in vitro", "setting": "POLG", "value": "inhibit POLG activity in vitro"}
    ]},
    {"smiles": "Nc1ccn([C@H]2CC[C@@H](COP(=O)(O)OP(=O)(O)OP(=O)(O)O)O2)c(=O)n1", "note": "[zalcitabine-TP]", "values": [
      {"measurement": "inhibition of POLG activity in vitro", "setting": "POLG", "value": "inhibit POLG activity in vitro"}
    ]},
    {"smiles": "CN(Cc1cnc2nc(N)nc(N)c2n1)c1ccc(C(=O)N[C@@H](CCC(=O)O)C(=O)O)cc1", "note": "[Methotrexate, (S)-2-(4-(((2,4-diaminopteridin-6-yl)methyl)methylamino)benzamido)pentanedioic acid]", "values": [
      {"measurement": "selectivity for MSH2 deficient cells in high-throughput screen", "setting": "[2]", "value": "show selectivity for MSH2 deficient cells"},
      {"measurement": "8-OHdG accumulation", "setting": "[3]", "value": "did not increase"},
      {"measurement": "8-OHdG accumulation", "setting": "[4]", "value": "increased significantly"},
      {"measurement": "synthetic lethality with methotrexate (survival)", "setting": "Hec59+chr2 cells", "value": "synthetically lethal"},
      {"measurement": "synthetic lethality with methotrexate (survival)", "setting": "HeLa cells", "value": "synthetically lethal"},
      {"measurement": "POLβ expression", "setting": "[5]", "value": "reduction of POLβ expression"}
    ]},
    {"smiles": "Nc1ncnc2c1ncn2CCOCP(=O)(O)OP(=O)(O)OP(=O)(O)O", "note": "[adefovir-diphosphate]", "values": [
      {"measurement": "inhibition of POLG activity in vitro", "setting": "POLG", "value": "inhibit POLG activity in vitro"}
    ]},
    {"smiles": "C/C(=C/CC[C@H](C)[C@@H]1CC[C@]2(C)C3=CC[C@H]4C(C)(C)C(=O)CC[C@]4(C)[C@H]3CC[C@@]12C)C(=O)O", "note": "[masticadienonic acid]", "values": [
      {"measurement": "IC50", "setting": "POLB", "value": 8, "unit": "µM"}
    ]},
    {"smiles": "Nc1ccn([C@@H]2CS[C@H](COP(=O)(O)OP(=O)(O)OP(=O)(O)O)O2)c(=O)n1", "note": "[Lamivudine-TP]", "values": [
      {"measurement": "inhibition of POLG activity in vitro", "setting": "POLG", "value": "inhibit POLG activity in vitro"}
    ]},
    {"smiles": "Nc1nc2ncc(CNc3ccc(C(=O)N[C@@H](CCC(=O)O)C(=O)O)cc3)nc2c(=O)[nH]1", "note": "[folic acid]", "values": [
      {"measurement": "rescue of methotrexate lethality", "setting": "[6]", "value": "in large part rescues the lethal phenotype"}
    ]},
    {"smiles": "CC1=CC(=O)c2ccccc2C1=O", "note": "[Menadione, 2-methylnaphthalene-1,4-dione]", "values": [
      {"measurement": "inhibition of POLG", "setting": "POLG; VK3 at 30 μM", "value": "more than 80%"},
      {"measurement": "reactive oxygen species (ROS)", "setting": "[7]", "value": "significant increase"},
      {"measurement": "selectivity for MSH2 deficient cells in high-throughput screen", "setting": "[2]", "value": "show selectivity for MSH2 deficient cells"},
      {"measurement": "8-OHdG accumulation", "setting": "[3]", "value": "did not increase"},
      {"measurement": "8-OHdG accumulation", "setting": "[4]", "value": "increased significantly"}
    ]},
    {"smiles": "OO", "note": "[H202]", "values": [
      {"measurement": "POLB mRNA levels", "setting": "[8]", "value": "induced"}
    ]}
  ]
}
